Laboratory results as given in ChEMBL document CHEMBL3425434 (J Med Chem, 2015).
Calls of active or inactive are those of the source. The calls are words filed in the database; no cut-off is given here.

Tests used:
[1] = Half life in human plasma by LC-MS/MS analysis; assay type: ADME, cell-free
[2] = Inhibition of ROCK-catalysed MLC Thr18/Ser19 phosphorylation in rat A7r5 cells after 90 mins by ELISA; assay type: cell-based; conditions: A7R5, 1.5 h
[3] = biological target: T1, Rho-associated protein kinase 2 (Homo sapiens, UniProt O75116); test: Inhibition of human N-terminal GST-tagged ROCK2 expressed in baculovirus-infected insect cells using long S6 kinase peptide as substrate by radiometric assay in presence of [32P]ATP
T1 sequence (O75116 whole entry): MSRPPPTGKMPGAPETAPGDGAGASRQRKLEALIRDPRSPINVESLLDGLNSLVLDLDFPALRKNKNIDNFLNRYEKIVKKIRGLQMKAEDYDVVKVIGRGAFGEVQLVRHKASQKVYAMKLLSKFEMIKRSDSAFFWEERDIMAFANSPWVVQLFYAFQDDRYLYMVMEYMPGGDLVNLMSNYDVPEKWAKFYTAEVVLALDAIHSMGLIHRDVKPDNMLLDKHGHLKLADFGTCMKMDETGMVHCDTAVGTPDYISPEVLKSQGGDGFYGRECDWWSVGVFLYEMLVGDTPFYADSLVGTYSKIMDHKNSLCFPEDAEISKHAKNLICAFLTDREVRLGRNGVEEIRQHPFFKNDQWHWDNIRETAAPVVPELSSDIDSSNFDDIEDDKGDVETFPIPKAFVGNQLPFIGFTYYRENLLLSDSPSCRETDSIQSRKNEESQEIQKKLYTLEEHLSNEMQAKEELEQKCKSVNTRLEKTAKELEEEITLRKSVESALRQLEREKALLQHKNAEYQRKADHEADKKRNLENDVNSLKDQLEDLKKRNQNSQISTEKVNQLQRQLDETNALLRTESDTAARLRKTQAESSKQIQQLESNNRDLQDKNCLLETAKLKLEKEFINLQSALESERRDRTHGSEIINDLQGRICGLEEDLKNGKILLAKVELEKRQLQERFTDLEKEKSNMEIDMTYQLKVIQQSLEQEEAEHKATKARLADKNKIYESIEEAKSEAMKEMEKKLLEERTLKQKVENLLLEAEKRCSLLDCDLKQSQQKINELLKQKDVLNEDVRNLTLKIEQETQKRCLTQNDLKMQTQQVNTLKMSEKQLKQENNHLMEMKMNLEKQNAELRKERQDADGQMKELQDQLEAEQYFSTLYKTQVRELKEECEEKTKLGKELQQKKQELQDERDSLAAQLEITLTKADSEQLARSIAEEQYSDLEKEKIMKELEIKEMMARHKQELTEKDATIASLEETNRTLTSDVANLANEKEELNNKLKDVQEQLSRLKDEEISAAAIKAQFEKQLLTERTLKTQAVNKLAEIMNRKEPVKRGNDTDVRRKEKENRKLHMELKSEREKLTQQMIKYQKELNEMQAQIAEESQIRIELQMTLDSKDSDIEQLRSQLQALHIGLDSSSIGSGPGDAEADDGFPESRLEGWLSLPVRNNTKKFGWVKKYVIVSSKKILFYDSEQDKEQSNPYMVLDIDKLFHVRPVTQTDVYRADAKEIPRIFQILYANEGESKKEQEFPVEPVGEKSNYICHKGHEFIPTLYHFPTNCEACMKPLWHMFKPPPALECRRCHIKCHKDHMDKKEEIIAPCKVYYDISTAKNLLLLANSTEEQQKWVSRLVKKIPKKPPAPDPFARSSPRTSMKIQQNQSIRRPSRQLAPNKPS

[4] = biological target: T1, Rho-associated protein kinase 2; test: Inhibition of human N-terminal GST-tagged ROCK2 expressed in baculovirus-infected insect cells using long S6 kinase peptide as substrate by radiometric assay in presence of [32P]ATP and 200 uM ATP
[5] = biological target: Rho-associated protein kinase 1 (Homo sapiens, UniProt Q13464); test: Inhibition of human N-terminal GST-tagged ROCK1 expressed in insect cells using long S6 kinase peptide as substrate by radiometric assay in presence of [32P]ATP
Sequence of Rho-associated protein kinase 1 (Q13464 whole entry): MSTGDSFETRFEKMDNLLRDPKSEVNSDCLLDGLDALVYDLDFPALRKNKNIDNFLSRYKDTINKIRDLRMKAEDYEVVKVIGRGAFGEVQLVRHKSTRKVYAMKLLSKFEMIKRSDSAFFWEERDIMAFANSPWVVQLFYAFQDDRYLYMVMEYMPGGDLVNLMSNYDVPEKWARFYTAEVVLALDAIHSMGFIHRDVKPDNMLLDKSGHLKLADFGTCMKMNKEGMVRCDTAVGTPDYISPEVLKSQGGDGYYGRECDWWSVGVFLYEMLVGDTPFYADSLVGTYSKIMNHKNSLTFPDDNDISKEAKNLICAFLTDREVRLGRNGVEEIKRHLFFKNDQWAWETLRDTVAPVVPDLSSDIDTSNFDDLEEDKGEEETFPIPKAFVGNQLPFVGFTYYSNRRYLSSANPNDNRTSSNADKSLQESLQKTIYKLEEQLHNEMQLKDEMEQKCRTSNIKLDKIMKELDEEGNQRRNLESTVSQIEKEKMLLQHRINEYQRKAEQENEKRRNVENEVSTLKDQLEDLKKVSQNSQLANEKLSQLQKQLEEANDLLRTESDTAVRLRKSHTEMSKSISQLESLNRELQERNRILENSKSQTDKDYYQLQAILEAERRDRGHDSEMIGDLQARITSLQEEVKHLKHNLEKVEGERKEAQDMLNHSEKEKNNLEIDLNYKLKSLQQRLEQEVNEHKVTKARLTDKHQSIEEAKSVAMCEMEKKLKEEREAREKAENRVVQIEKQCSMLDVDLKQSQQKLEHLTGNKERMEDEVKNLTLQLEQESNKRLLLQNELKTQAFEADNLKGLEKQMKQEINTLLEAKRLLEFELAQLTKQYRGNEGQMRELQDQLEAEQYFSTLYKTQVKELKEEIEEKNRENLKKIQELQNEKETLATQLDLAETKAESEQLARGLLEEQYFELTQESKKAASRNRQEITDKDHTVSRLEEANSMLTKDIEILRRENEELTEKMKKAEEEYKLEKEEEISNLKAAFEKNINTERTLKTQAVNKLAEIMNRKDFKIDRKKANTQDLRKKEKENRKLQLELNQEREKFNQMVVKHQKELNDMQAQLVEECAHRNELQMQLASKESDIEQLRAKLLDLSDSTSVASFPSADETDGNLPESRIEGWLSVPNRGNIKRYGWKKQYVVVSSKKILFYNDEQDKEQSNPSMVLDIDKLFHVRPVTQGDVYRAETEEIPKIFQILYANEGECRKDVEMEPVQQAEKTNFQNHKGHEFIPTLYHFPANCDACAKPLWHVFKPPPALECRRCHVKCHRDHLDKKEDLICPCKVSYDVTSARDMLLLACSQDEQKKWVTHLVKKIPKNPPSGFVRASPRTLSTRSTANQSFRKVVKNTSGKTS

[6] = Half life in human plasma by LC-MS/MS analysis in presence of 5 uM cholinesterase inhibitor tacrine; assay type: ADME, cell-free; conditions: with tacrine (cholinesterase inhibitor)
[7] = Stability in human plasma assessed as compound remaining after 60 mins by LC-MS/MS analysis in presence of 5 uM cholinesterase inhibitor tacrine; assay type: ADME, cell-free; conditions: with tacrine (cholinesterase inhibitor), read-out: Stability
[8] = Stability in human plasma assessed as compound remaining after 60 mins by LC-MS/MS analysis; assay type: ADME, cell-free; conditions: read-out: Stability
[9] = tested on: HDF-1; test: Induction of cell migration in human HDF-1 cells at 1 uM after 8 hrs by wound healing assay; assay type: functional, cell-based
[10] = Lipophilicity, log D of the compound at pH 7.4; assay type: physicochemical; conditions: buffer
[11] = Apparent permeability across human Caco2 cells; assay type: ADME, cell-based; conditions: Caco-2
[12] = Stability in human plasma assessed as compound remaining after 2 hrs by LC-MS/MS analysis; assay type: ADME, cell-free; conditions: read-out: Stability
[13] = Cytotoxicity against human HDF-1 cells assessed as decrease in cell viability after 2 hrs by WST-1 assay; assay type: cell-based
[14] = Induction of apoptosis in human HDF-1 cells assessed as increase in caspase3/7 activity at 40-100 uM after 24 hrs by caspase Glo-3/7 assay; assay type: cell-based; conditions: hdf-1, 24 h
[15] = tested on: HDF-1; test: Induction of cell migration in human HDF-1 cells after 8 hrs by wound healing assay; assay type: functional, cell-based
[16] = tested on: Plasma; test: Stability in human plasma by LC-MS/MS analysis in presence of carboxylesterase inhibitor BNPP; assay type: ADME, cell-free
[17] = Induction of apoptosis in human HDF-1 cells assessed as increase in caspase3/7 activity at 60 uM after 24 hrs by caspase Glo-3/7 assay; assay type: cell-based; conditions: hdf-1, 24 h
[18] = tested on: Plasma; test: Stability in human plasma by LC-MS/MS analysis in presence of arylesterase inhibitor DTNB; assay type: ADME, cell-free
[19] = tested on: Plasma; test: Stability in human plasma by LC-MS/MS analysis in presence of 5 mM PON1 inhibitor, disodium EDTA; assay type: ADME, cell-free
[20] = tested on: Plasma; test: Stability in human plasma after 120 mins by LC-MS/MS analysis in presence of generic serine protease/serine esterase inhibitor, PMSF; assay type: ADME, cell-free; conditions: 2 h

| Structure (SMILES) | half-life [1] | EC50 [2] | IC50 [3] | IC50 [4] | also measured |
| --- | --- | --- | --- | --- | --- |
| NCc1ccc(C(=O)Nc2ccncc2F)cc1-c1cccc(C(=O)Nc2cccc(CC(=O)O)c2)c1 | > 120 min | 1300 nM | 1.5 nM |  |  |
| COC(=O)Cc1ccc(NC(=O)c2cccc(-c3cc(C(=O)Nc4ccncc4F)ccc3CN)c2)cc1 | < 5 min | 31 nM | < 1 nM | 11 nM | IC50 [5]: < 1 nM; half-life [6]: 53 min |
| NCc1ccc(C(=O)Nc2ccncc2F)cc1-c1cccc(NC(=O)c2cc(C(=O)O)ccc2F)c1 | > 120 min | 8900 nM | < 1 nM |  |  |
| CC[C@H](C)OC(=O)Cc1ccc(NC(=O)c2cccc(-c3cc(C(=O)Nc4ccncc4F)ccc3CN)c2)cc1 | 17 min | 23 nM | < 1 nM | < 1 nM | remaining at 1 h [7]: 101%; remaining at 1 h [8]: 42% |
| NCc1ccc(C(=O)Nc2ccncc2F)cc1-c1cccc(C(=O)Nc2ccc(C(=O)O)cc2)c1 | > 120 min | 6600 nM | 3.3 nM |  | Activity [9]: inactive; logD [10]: 0.56; Papp [11]: 0.08 ×10⁻⁶ cm/s |
| NCc1ccc(C(=O)Nc2ccncc2F)cc1-c1cccc(C(=O)Nc2cccc(C(=O)O)c2)c1 | > 120 min | 5900 nM | 6.6 nM |  |  |
| NCc1ccc(C(=O)Nc2ccncc2F)cc1-c1cccc(C(=O)Nc2cccc(C(=O)O)c2F)c1 | > 120 min | > 10000 nM | 3.5 nM |  |  |
| NCc1ccc(C(=O)Nc2ccncc2F)cc1-c1cccc(C(=O)Nc2cc(C(=O)O)ccc2F)c1 | > 120 min | 3900 nM | 2 nM |  |  |
| NCc1ccc(C(=O)Nc2ccncc2F)cc1-c1cccc(C(=O)Nc2ccc(CC(=O)OC3CCCC3)cc2)c1 | 7 min | 26 nM | < 1 nM | 1.3 nM | CC50 at 2 h [13]: 29000 nM; remaining at 1 h [7]: 100%; Activity [14]: Toxic; Activity [15]: Dose-dependent effect; remaining at 1 h [8]: 2% |
| COC(=O)Cc1cccc(NC(=O)c2cccc(-c3cc(C(=O)Nc4ccncc4F)ccc3CN)c2)c1 | < 5 min | 220 nM | 1.1 nM | 144 nM | IC50 [5]: < 1 nM |
| COCCOC(=O)c1ccc(F)c(C(=O)Nc2cccc(-c3cc(C(=O)Nc4ccncc4F)ccc3CN)c2)c1 | < 5 min | 26 nM | < 1 nM | 2.2 nM | remaining at 1 h [7]: 88%; remaining at 1 h [8]: 0% |
| CN1CCC(OC(=O)Cc2ccc(NC(=O)c3cccc(-c4cc(C(=O)Nc5ccncc5F)ccc4CN)c3)cc2)CC1 | < 5 min | 330 nM | < 1 nM | 4.6 nM |  |
| COC(=O)c1cccc(NC(=O)c2cccc(-c3cc(C(=O)Nc4ccncc4F)ccc3CN)c2)c1 | < 5 min | 79 nM | 1.1 nM | 125 nM | IC50 [5]: < 1 nM; half-life [6]: 53 min |
| COC(=O)c1ccc(F)c(C(=O)Nc2cccc(-c3cc(C(=O)Nc4ccncc4F)ccc3CN)c2)c1 | 53 min | 6.8 nM | < 1 nM | 1.4 nM | remaining at 1 h [7]: 103%; remaining at 1 h [8]: 23% |
| NCc1ccc(C(=O)Nc2ccncc2F)cc1-c1cccc(NC(=O)c2cccc(C(=O)O)c2)c1 | > 120 min | 2000 nM | < 1 nM |  |  |
| NCc1ccc(C(=O)Nc2ccncc2F)cc1-c1cccc(NC(=O)c2ccc(C(=O)O)cc2)c1 |  | 3600 nM | 1 nM |  |  |
| NCc1ccc(C(=O)Nc2ccncc2F)cc1-c1cccc(C(=O)Nc2ccc(CC(=O)OC3CCOCC3)cc2)c1 | 7 min | 79 nM | < 1 nM | < 1 nM | remaining at 1 h [7]: 82%; remaining at 1 h [8]: 0% |
| COC(=O)c1ccc(F)c(NC(=O)c2cccc(-c3cc(C(=O)Nc4ccncc4F)ccc3CN)c2)c1 | 18 min | 26 nM | 1.6 nM | 46 nM | Stability [16]: Unstable; CC50 at 2 h [13]: 45000 nM; Activity [17]: Toxic; Stability [18]: Unstable; Stability [19]: Unstable; remaining at 1 h [7]: 98%; Stability [20]: Stable; Activity [15]: Dose-dependent effect; remaining at 1 h [8]: 13% |
| NCc1ccc(C(=O)Nc2ccncc2F)cc1-c1cccc(C(=O)Nc2ccc(CC(=O)O)cc2)c1 | > 120 min | 3600 nM | 1.8 nM |  |  |
| C[C@@H](N)[C@H]1CC[C@H](C(=O)Nc2ccncc2)CC1 [Y-27632] | > 120 min | 630 nM |  |  |  |

Further compounds by falling EC50 [2], results first:

| half-life [1] | EC50 [2] | IC50 [3] | IC50 [4] | Structure (SMILES) | also measured |
| --- | --- | --- | --- | --- | --- |
|  | 210 nM | 3.8 nM | 197 nM | C[C@H]1CNCCCN1S(=O)(=O)c1cccc2cncc(F)c12 |  |
| < 5 min | 180 nM | 27 nM |  | CCCCOC(=O)c1cccc(NC(=O)c2cccc(-c3cc(C(=O)Nc4ccncc4F)ccc3CN)c2)c1 |  |
| 34 min | 150 nM | 7 nM |  | CC(C)OC(=O)c1cccc(NC(=O)c2cccc(-c3cc(C(=O)Nc4ccncc4F)ccc3CN)c2)c1 |  |
| < 5 min | 94 nM |  | 49 nM | NCc1ccc(C(=O)Nc2ccncc2F)cc1-c1cccc(C(=O)OCC2CCCO2)c1 (configuration not stated) |  |
| 46 min | 79 nM | 3.3 nM |  | CC[C@@H](C)OC(=O)c1ccc(F)c(NC(=O)c2cccc(-c3cc(C(=O)Nc4ccncc4F)ccc3CN)c2)c1 |  |
| 16 min | 77 nM | 2.6 nM |  | CCC(C)OC(=O)c1cccc(NC(=O)c2cccc(-c3cc(C(=O)Nc4ccncc4F)ccc3CN)c2)c1 (configuration not stated) |  |
| < 5 min | 75 nM | 2.1 nM |  | CCCOC(=O)c1ccc(F)c(NC(=O)c2cccc(-c3cc(C(=O)Nc4ccncc4F)ccc3CN)c2)c1 |  |
| 39 min | 50 nM | 5.5 nM | 72 nM | CC[C@H](C)OC(=O)c1ccc(F)c(NC(=O)c2cccc(-c3cc(C(=O)Nc4ccncc4F)ccc3CN)c2)c1 |  |
| 9 min | 43 nM | 1.4 nM | 41 nM | NCc1ccc(C(=O)Nc2ccncc2F)cc1-c1cccc(C(=O)Nc2cccc(C(=O)OC3CCCC3)c2F)c1 |  |
| 94 min | 37 nM | < 1 nM | < 1 nM | CC(C)OC(=O)Cc1ccc(NC(=O)c2cccc(-c3cc(C(=O)Nc4ccncc4F)ccc3CN)c2)cc1 |  |
| 6 min | 36 nM | < 1 nM | < 1 nM | NCc1ccc(C(=O)Nc2ccncc2F)cc1-c1cccc(C(=O)Nc2ccc(CC(=O)OC3CCCOC3)cc2)c1 (configuration not stated) |  |
| > 120 min | 31 nM | < 1 nM | < 1 nM | CC[C@@H](C)OC(=O)Cc1ccc(NC(=O)c2cccc(-c3cc(C(=O)Nc4ccncc4F)ccc3CN)c2)cc1 |  |
| 6 min | 24 nM | 1.3 nM | 1.4 nM | NCc1ccc(C(=O)Nc2ccncc2F)cc1-c1cccc(C(=O)Nc2ccc(CC(=O)OC3CCC3)cc2)c1 |  |
| > 120 min | 22 nM | < 1 nM | 31 nM | NCc1ccc(C(=O)Nc2ccncc2F)cc1-c1cccc(C(=O)Nc2ccccc2)c1 | Papp [11]: 2.3 ×10⁻⁶ cm/s; remaining at 2 h [12]: > 90% |
| 64 min | 17 nM | < 1 nM | 2.1 nM | COC(=O)c1cccc(C(=O)Nc2cccc(-c3cc(C(=O)Nc4ccncc4F)ccc3CN)c2)c1 |  |
| < 5 min | 15 nM | 1.8 nM |  | CCCOC(=O)c1cccc(C(=O)Nc2cccc(-c3cc(C(=O)Nc4ccncc4F)ccc3CN)c2)c1 |  |
| < 5 min | 11 nM | 1.2 nM | 8.8 nM | COC(=O)c1cccc(NC(=O)c2cccc(-c3cc(C(=O)Nc4ccncc4F)ccc3CN)c2)c1F |  |
| > 120 min | 8.3 nM | < 1 nM |  | CCCOC(=O)c1ccc(NC(=O)c2cccc(-c3cc(C(=O)Nc4ccncc4F)ccc3CN)c2)cc1 |  |
| > 120 min | 5.2 nM | < 1 nM | 3.1 nM | COC(=O)c1ccc(C(=O)Nc2cccc(-c3cc(C(=O)Nc4ccncc4F)ccc3CN)c2)cc1 |  |
